Assay results taken from patent US7118895B2, “Process for producing aglycon by using diglycosidase and flavor-improved food containing the aglycon and converting agent to be used in the process” (Amano Enzyme Inc., priority 2000, dated 2006).

Test system: Crude diglycosidase
Experiment: Examination of temperature in the conversion into isoflavone aglycons by diglycosidase using soybean materials
Type: biochemical, Penicillium multicolor IAM7153
Design: Decomposition efficiency of glycitin family in roasted soy flour / Decomposition efficiency of daidzin family in roasted soy flour / Decomposition efficiency of genistin family in soymilk / Decomposition efficiency of daidzin family in soymilk / Decomposition efficiency of glycitin family in defatted soybean / Decomposition efficiency of daidzin family in defatted soybean: concentration or dose not given beside the values
Procedure, shortened: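 Soybean materials (50 mg) suspended in 20 mM acetate buffer pH 4.0 reacted with crude diglycosidase diluted to 1.88 AU/mL at 80, 65, 55, 45, 37 or 30° C. Reactions stopped with ethanol at 0, 1, 3 and 6 h; isoflavone glycosides and aglycons in supernatant detected by HPLC.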

[1] = 30 °C, heat treatment of enzyme: no, 0 h
[2] = 30 °C, heat treatment of enzyme: no, 1 h
[3] = 30 °C, heat treatment of enzyme: no, 3 h
[4] = 30 °C, heat treatment of enzyme: no, 6 h
[5] = 30 °C, heat treatment of enzyme: yes, 6 h
[6] = 45 °C, heat treatment of enzyme: no, 0 h
[7] = 45 °C, heat treatment of enzyme: no, 1 h
[8] = 45 °C, heat treatment of enzyme: no, 3 h
[9] = 45 °C, heat treatment of enzyme: no, 6 h
[10] = 45 °C, heat treatment of enzyme: yes, 6 h
[11] = 55 °C, heat treatment of enzyme: no, 0 h
[12] = 55 °C, heat treatment of enzyme: no, 1 h
[13] = 55 °C, heat treatment of enzyme: no, 3 h
[14] = 55 °C, heat treatment of enzyme: no, 6 h
[15] = 55 °C, heat treatment of enzyme: yes, 6 h
[16] = 65 °C, heat treatment of enzyme: no, 0 h
[17] = 65 °C, heat treatment of enzyme: no, 1 h
[18] = 65 °C, heat treatment of enzyme: no, 3 h
[19] = 65 °C, heat treatment of enzyme: no, 6 h
[20] = 65 °C, heat treatment of enzyme: yes, 6 h
[21] = 80 °C, heat treatment of enzyme: no, 0 h
[22] = 80 °C, heat treatment of enzyme: no, 1 h
[23] = 80 °C, heat treatment of enzyme: no, 3 h
[24] = 80 °C, heat treatment of enzyme: no, 6 h
[25] = 80 °C, heat treatment of enzyme: yes, 6 h

Decomposition efficiency of glycitin family in defatted soybean (30° C., heat treatment of enzyme no, reaction time 0 h): not detected
Decomposition efficiency of glycitin family in defatted soybean (30° C., heat treatment of enzyme no, reaction time 1 h): not detected
Decomposition efficiency of glycitin family in defatted soybean (30° C., heat treatment of enzyme no, reaction time 3 h): not detected
Decomposition efficiency of glycitin family in defatted soybean (30° C., heat treatment of enzyme no, reaction time 6 h): not detected
Decomposition efficiency of glycitin family in defatted soybean (30° C., heat treatment of enzyme yes, reaction time 6 h): not detected
Decomposition efficiency of glycitin family in concentrated soybean protein [1]: 52.2%
Decomposition efficiency of glycitin family in roasted soy flour [1]: 50.9%
Decomposition efficiency of glycitin family in soymilk [1]: 43.9%
Decomposition efficiency of glycitin family in concentrated soybean protein [2]: 47.1%
Decomposition efficiency of glycitin family in roasted soy flour [2]: 34.8%
Decomposition efficiency of glycitin family in soymilk [2]: not detected
Decomposition efficiency of glycitin family in concentrated soybean protein [3]: 39.1%
Decomposition efficiency of glycitin family in roasted soy flour [3]: not detected
Decomposition efficiency of glycitin family in soymilk [3]: not detected
Decomposition efficiency of glycitin family in concentrated soybean protein [4]: 28.4%
Decomposition efficiency of glycitin family in roasted soy flour [4]: not detected
Decomposition efficiency of glycitin family in soymilk [4]: not detected
Decomposition efficiency of glycitin family in concentrated soybean protein [5]: 52.8%
Decomposition efficiency of glycitin family in roasted soy flour [5]: 51.4%
Decomposition efficiency of glycitin family in soymilk [5]: 44.5%
Decomposition efficiency of glycitin family in defatted soybean (45° C., heat treatment of enzyme no, reaction time 0 h): not detected
Decomposition efficiency of glycitin family in defatted soybean (45° C., heat treatment of enzyme no, reaction time 1 h): not detected
Decomposition efficiency of glycitin family in defatted soybean (45° C., heat treatment of enzyme no, reaction time 3 h): not detected
Decomposition efficiency of glycitin family in defatted soybean (45° C., heat treatment of enzyme no, reaction time 6 h): not detected
Decomposition efficiency of glycitin family in defatted soybean (45° C., heat treatment of enzyme yes, reaction time 6 h): not detected
Decomposition efficiency of glycitin family in concentrated soybean protein [6]: 52.3%
Decomposition efficiency of glycitin family in roasted soy flour [6]: 51.3%
Decomposition efficiency of glycitin family in soymilk [6]: 42.6%
Decomposition efficiency of glycitin family in concentrated soybean protein [7]: 30.2%
Decomposition efficiency of glycitin family in roasted soy flour [7]: 12.4%
Decomposition efficiency of glycitin family in soymilk [7]: not detected
Decomposition efficiency of glycitin family in concentrated soybean protein [8]: 18.8%
Decomposition efficiency of glycitin family in roasted soy flour [8]: 12.4%
Decomposition efficiency of glycitin family in soymilk [8]: not detected
Decomposition efficiency of glycitin family in concentrated soybean protein [9]: 7.5%
Decomposition efficiency of glycitin family in roasted soy flour [9]: 5.9%
Decomposition efficiency of glycitin family in soymilk [9]: not detected
Decomposition efficiency of glycitin family in concentrated soybean protein [10]: 53.2%
Decomposition efficiency of glycitin family in roasted soy flour [10]: 49.8%
Decomposition efficiency of glycitin family in soymilk [10]: 45.4%
Decomposition efficiency of glycitin family in defatted soybean (55° C., heat treatment of enzyme no, reaction time 0 h): not detected
Decomposition efficiency of glycitin family in defatted soybean (55° C., heat treatment of enzyme no, reaction time 1 h): not detected
Decomposition efficiency of glycitin family in defatted soybean (55° C., heat treatment of enzyme no, reaction time 3 h): not detected
Decomposition efficiency of glycitin family in defatted soybean (55° C., heat treatment of enzyme no, reaction time 6 h): not detected
Decomposition efficiency of glycitin family in defatted soybean (55° C., heat treatment of enzyme yes, reaction time 6 h): not detected
Decomposition efficiency of glycitin family in concentrated soybean protein [11]: 52.3%
Decomposition efficiency of glycitin family in roasted soy flour [11]: 50.5%
Decomposition efficiency of glycitin family in soymilk [11]: 47.8%
Decomposition efficiency of glycitin family in concentrated soybean protein [12]: 14.2%
Decomposition efficiency of glycitin family in roasted soy flour [12]: not detected
Decomposition efficiency of glycitin family in soymilk [12]: not detected
Decomposition efficiency of glycitin family in concentrated soybean protein [13]: not detected
Decomposition efficiency of glycitin family in roasted soy flour [13]: not detected
Decomposition efficiency of glycitin family in soymilk [13]: not detected
Decomposition efficiency of glycitin family in concentrated soybean protein [14]: not detected
Decomposition efficiency of glycitin family in roasted soy flour [14]: not detected
Decomposition efficiency of glycitin family in soymilk [14]: not detected
Decomposition efficiency of glycitin family in concentrated soybean protein [15]: 52.9%
Decomposition efficiency of glycitin family in roasted soy flour [15]: 51.7%
Decomposition efficiency of glycitin family in soymilk [15]: 53.5%
Decomposition efficiency of glycitin family in defatted soybean (65° C., heat treatment of enzyme no, reaction time 0 h): not detected
Decomposition efficiency of glycitin family in defatted soybean (65° C., heat treatment of enzyme no, reaction time 1 h): not detected
Decomposition efficiency of glycitin family in defatted soybean (65° C., heat treatment of enzyme no, reaction time 3 h): not detected
Decomposition efficiency of glycitin family in defatted soybean (65° C., heat treatment of enzyme no, reaction time 6 h): not detected
Decomposition efficiency of glycitin family in defatted soybean (65° C., heat treatment of enzyme yes, reaction time 6 h): not detected
Decomposition efficiency of glycitin family in concentrated soybean protein [16]: 52.2%
Decomposition efficiency of glycitin family in roasted soy flour [16]: 50.9%
Decomposition efficiency of glycitin family in soymilk [16]: 43.9%
Decomposition efficiency of glycitin family in concentrated soybean protein [17]: 5.2%
Decomposition efficiency of glycitin family in roasted soy flour [17]: not detected
Decomposition efficiency of glycitin family in soymilk [17]: not detected
Decomposition efficiency of glycitin family in concentrated soybean protein [18]: not detected
Decomposition efficiency of glycitin family in roasted soy flour [18]: not detected
Decomposition efficiency of glycitin family in soymilk [18]: not detected
Decomposition efficiency of glycitin family in concentrated soybean protein [19]: not detected
Decomposition efficiency of glycitin family in roasted soy flour [19]: not detected
Decomposition efficiency of glycitin family in soymilk [19]: not detected
Decomposition efficiency of glycitin family in concentrated soybean protein [20]: 52.5%
Decomposition efficiency of glycitin family in roasted soy flour [20]: 50.3%
Decomposition efficiency of glycitin family in soymilk [20]: 56.8%
Decomposition efficiency of glycitin family in defatted soybean (80° C., heat treatment of enzyme no, reaction time 0 h): not detected
Decomposition efficiency of glycitin family in defatted soybean (80° C., heat treatment of enzyme no, reaction time 1 h): not detected
Decomposition efficiency of glycitin family in defatted soybean (80° C., heat treatment of enzyme no, reaction time 3 h): not detected
Decomposition efficiency of glycitin family in defatted soybean (80° C., heat treatment of enzyme no, reaction time 6 h): not detected
Decomposition efficiency of glycitin family in defatted soybean (80° C., heat treatment of enzyme yes, reaction time 6 h): not detected
Decomposition efficiency of glycitin family in concentrated soybean protein [21]: 52.3%
Decomposition efficiency of glycitin family in roasted soy flour [21]: 51.3%
Decomposition efficiency of glycitin family in soymilk [21]: 42.6%
Decomposition efficiency of glycitin family in concentrated soybean protein [22]: 39.7%
Decomposition efficiency of glycitin family in roasted soy flour [22]: 19.2%
Decomposition efficiency of glycitin family in soymilk [22]: 10.7%
Decomposition efficiency of glycitin family in concentrated soybean protein [23]: 40.5%
Decomposition efficiency of glycitin family in roasted soy flour [23]: 20.5%
Decomposition efficiency of glycitin family in soymilk [23]: 22.5%
Decomposition efficiency of glycitin family in concentrated soybean protein [24]: 41.7%
Decomposition efficiency of glycitin family in roasted soy flour [24]: 33.6%
Decomposition efficiency of glycitin family in soymilk [24]: 44.2%
Decomposition efficiency of glycitin family in concentrated soybean protein [25]: 53.6%
Decomposition efficiency of glycitin family in roasted soy flour [25]: 50.6%
Decomposition efficiency of glycitin family in soymilk [25]: 71.4%
SMILES: COc1cc2c(=O)c(-c3ccc(O)cc3)coc2cc1O[C@@H]1O[C@H](CO)[C@@H](O)[C@H](O)[C@H]1O [glycitin]
